We go through 2 substances from patent publication US20030064960A1, “Medicine for inducing osteogenesis” (priority 1999, published 2003).

In experiment [1] the test system is RC-I,II cell (cultured cell derived from rat calvaria). Kind of experiment: Osteogenesis inducing activity on cultured cell derived from rat calvaria (northern blotting of ALP, COL1 and OC genes). It is filed as cell-based. On the procedure: (1) Preparation of Cultured Cell Derived from Rat Calvaria
Cultured cell derived from rat calvaria was isolated from Wister rats (obtained from sankyo-rabo) of three days old by following method.
The rats were killed, decapitated and their calvarias were picked out. The tissue was flaked by a tweezer and suspended into a solution for enzyme treatment, containing 0.04% of EDTA, collagenase (crude type 1A: SIGMA: 0.1%) and trypsin (0.05%). The sample was treated in the enzyme solution for 30 min under temperature of 37° C. Then, the enzyme solution was harvested and cells extricated into the enzyme solution was harvested by centrifugation (RC-I). The enzyme solution was added again and digested at 37° C. for 30 min. Cells extricated into the enzyme solution was designated as RC-II.
The RC-I and RC-II thus obtained were mixed and used for following experiments. The cell mixture of RC-I and RC-II was designated as RC-I,II cell in following description. […] The RC-I and RC-II described above hardly expressed alkaline phosphatase (ALP), type 1 collagen (COL1) and osteocarcin (OC) gene. The genes described above are used for marker genes of osteoblast (T. R. Arnett et al, Methods in Bone Biology, 1988, Chapman & Hall).
(3) Estimation of Osteogenesis Inducing Activity of the Lipid-bound Glycosaminoglycan
HA-PE produced as described above was dissolved in hank's solution at concentration of 5 μg/ml and 2 ml of hank's solution containing HA-PE was poured into polystyrene culture dish with diameter of 10 cm. The dish was coated by settling the dish for 16 hours at 4° C. The dish treated by hank's solution without HA-PE was used for control.
The RC-I,II cell suspension, prepared as described above, was poured on the dish at the density of 1×10^4 cells/cm^2. The cell was cultured in α-minimum eagle medium (MEM: GIBCO) solution containing 1% anti-biotics, anti-mycoplasma solution (containing 50 μg/ml ascorbic acid and 5 mM β-glycerophosphate, GIBCO) and 10% fatal bovine serum (FBS: GIBCO).
At the time just after cell reached to confluent, one week after confluent and two weeks after confluent, total RNA of the cell was extracted by guanidine-phenol-chloroform method. The expression of ALP, COL1 and OC genes was analyzed by northern blotting method. The expression of these genes are used as an indicator of osteoblast differentiation. In FIG. 1, Et-Br indicates control sample obtained by staining of ribosomal RNA by ethydium bromide. Moreover, digitalized result calculated from northern blotting of FIG. 1 by Quantity One program (TOYOBO) was shown in FIG. 2 as a value standardized against the control described above.

For experiment [2] the following is noted: hyaluronic acid with a molecular weight of 20,000 to 60,000, at a concentration of 0.5 mg/ml; cited from earlier work.
Setting [3] is: RC-I,II cell cultured in dish coated with 5 μg/ml HA-PE, northern blotting at confluent, one and two weeks after confluent, vs dish treated without HA-PE.

On to “L-(α-phosphatidyl)ethanolamine dipalmytoyl conjugated hyaluronic acid [HA-PE]”, for which the “induction of osteocyte differentiation” value in experiment [1] (RC-I,II cell cultured in HA-PE coated dish (5 μg/ml)) is “significant induction of osteocyte differentiation”. Further, in experiment [1] (setting [3]), the “expression of ALP gene” value is listed as “predominant increase”, the “expression of COL1 gene” value was “predominant increase” and the “expression of OC gene” value is “predominant increase”.

Consider hyaluronic acid, for which, in experiment [2], the osteogenesis induction activity entry is listed as “osteogenesis induction activity”.
